Among the data in ChEMBL document CHEMBL3797202, “Novel Oxindole Sulfonamides and Sulfamides: EPZ031686, the First Orally Bioavailable Small Molecule SMYD3 Inhibitor” (ACS Med Chem Lett, 2016) are IC50 values, retold here.

For test [1], the target named is T1, Histone-lysine N-methyltransferase SMYD3 (Homo sapiens, UniProt Q9H7B4).
T1 sequence (Q9H7B4 whole entry): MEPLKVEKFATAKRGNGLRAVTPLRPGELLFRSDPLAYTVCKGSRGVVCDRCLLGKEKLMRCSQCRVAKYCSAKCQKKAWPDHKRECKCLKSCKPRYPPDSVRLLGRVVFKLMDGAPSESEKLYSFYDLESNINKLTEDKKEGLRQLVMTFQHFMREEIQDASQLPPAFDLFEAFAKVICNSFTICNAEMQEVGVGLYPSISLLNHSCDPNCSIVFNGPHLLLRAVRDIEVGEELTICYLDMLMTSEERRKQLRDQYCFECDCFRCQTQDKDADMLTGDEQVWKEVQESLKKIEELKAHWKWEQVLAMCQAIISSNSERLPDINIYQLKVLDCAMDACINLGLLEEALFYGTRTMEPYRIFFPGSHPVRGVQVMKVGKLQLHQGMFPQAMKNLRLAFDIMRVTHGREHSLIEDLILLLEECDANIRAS
The test is described as follows: Inhibition of human SMYD3 expressed in HEK293T/17 cells using FLAG-tagged MEKK2 as substrate incubated for 30 mins in low air flow area followed by incubation for 24 hrs at 37 degC by Western blot analysis. It is filed as cell-based, HEK-293T. (A western blot detects proteins with antibodies after separation by electrophoresis.)

Test [2] concerns the target T1, Histone-lysine N-methyltransferase SMYD3. The test is described as follows: Inhibition of full length N-terminal His-tagged SMYD3 (1 to 428 residues) (unknown origin) expressed in Escherichia coli using N-terminal GST-tagged MEKK2 as substrate preincubated for 30 mins followed by substrate addition by scintillation proximity assay in presence of [3H]SAM. For orientation: Scintillation proximity formats need no separation of bound from free tracer.

Bounds are passed on as bounds.

In the case of `NCCCS(=O)(=O)N1CCC(NC(=O)c2ccc3c(c2)CC(=O)N3)CC1`, in test [1], the IC50 (in general, the concentration needed to halve the response being measured) is more than 10000 nM.
With `N[C@H]1CC[C@H](S(=O)(=O)N2[C@@H]3CC[C@H]2C[C@@H](NC(=O)c2ccc4c(c2)CC(=O)N4)C3)CC1`, the IC50 in test [2] turned out to be 4 nM; in test [1], 2200 nM.
For `NCCCS(=O)(=O)N1CCC(NC(=O)c2cc3c(cc2Cl)NC(=O)C3)CC1`, in test [2], the IC50 was 80 nM.
On to `Cc1cc2c(cc1C(=O)N[C@H]1C[C@H]3CC[C@@H](C1)N3S(=O)(=O)N1CCC(N)CC1)CC(=O)N2`, for which, in test [1], the IC50 is 410 nM.
Consider `O=C1Cc2cc(C(=O)N[C@H]3C[C@H]4CC[C@@H](C3)N4S(=O)(=O)CC3CCN(CCCO)CC3)c(Cl)cc2N1`, for which the IC50 in test [2] amounted to 2 nM.
On the same count and under the same terms, as for `NC1CCN(S(=O)(=O)N2[C@@H]3CC[C@H]2C[C@@H](NC(=O)c2ccc4c(c2)CC(=O)N4)C3)CC1`, the figure is 1 nM.
Still for that read-out and setting: the same measure for `NC1CCN(S(=O)(=O)N2[C@@H]3CC[C@H]2C[C@@H](NC(=O)c2cc4c(cc2F)NC(=O)C4)C3)CC1`: 5 nM.
`CNC1CCN(S(=O)(=O)N2[C@@H]3CC[C@H]2C[C@@H](NC(=O)c2cc4c(cc2Cl)NC(=O)C4)C3)CC1`: the IC50 in test [2] came out at 2 nM.
On to `O=C1Cc2cc(C(=O)N[C@H]3C[C@H]4CC[C@@H](C3)N4S(=O)(=O)C[C@H]3CCCNC3)c(Cl)cc2N1`, for which the IC50 in test [2] came out at 4 nM; in test [1], 1300 nM.
Taken in the same sequence, the figures for `O=C1Cc2cc(C(=O)N[C@H]3C[C@H]4CC[C@@H](C3)N4S(=O)(=O)CC3CCNCC3)c(Cl)cc2N1` were 4 nM and 3200 nM.
As to `O=C1Cc2cc(C(=O)NC3CCN(S(=O)(=O)CC4CCNCC4)CC3)ccc2N1`, the IC50 in test [2] is 70 nM; in test [1], more than 10000 nM.
Take `NC1CCN(S(=O)(=O)N2[C@@H]3CC[C@H]2C[C@@H](NC(=O)c2cc4c(cc2Cl)NC(=O)C4)C3)CC1`: the IC50 in test [2] came to 1 nM; in test [1], 1100 nM.
Regarding `CN(C)C1CCN(S(=O)(=O)N2[C@@H]3CC[C@H]2C[C@@H](NC(=O)c2cc4c(cc2Cl)NC(=O)C4)C3)CC1`, in test [2], the IC50 is 3 nM.
On the same count and under the same terms, the same measure for `CN1CCC(CS(=O)(=O)N2[C@@H]3CC[C@H]2C[C@@H](NC(=O)c2ccc4c(c2)CC(=O)N4)C3)CC1`: 1 nM.
